From patent US20040121029A1, “Antiulcer herbal composition(s)” (Council of Scientific & Industrial Research, priority 2002, published 2004) come the findings set out here.

Test [1] relates to pylorus ligation (PL) - induced gastric ulcers. Put plainly: Pylorus ligation (PL) - induced ulcers in rats. The class given is in vivo. The settings on record: dose 50. On the procedure:
4. Pylorus ligated induced ulcers: Animals were anaesthetized using pentobarbitione (35 mg/kg, i.p.), the abdomen was opened and pylorus ligation was done without causing any damage to its blood supply. The stomach was replaced carefully and the abdomen wall was closed in 2 layers with interrupted sutures. The animals were deprived of water during postoperative period. After 4 hours stomach were dissected out and contents were collected and ulcer index was calculated.

In test [2] the test system is cold restraint stress (CRS) - induced gastric ulcers. Put plainly: Cold restraint stress (CRS) - induced ulcers in rats. The settings on record: dose 50. It is filed as in vivo. How it is done: 3. Cold restraint stress—induced ulcers: Rats were strapped on a wooden plank and kept them at 4-6° C. for 2 hours. The animals were then sacrificed by cervical dislocation and ulcers were scored on the dissected stomach.

Each structure is given as a SMILES string. Marks after values point to notes of the source that are not given here.

For the compound `CNC(=C[N+](=O)[O-])NCCSCc1ccc(CN(C)C)o1` [Ranitidine], in test [1], the “PL - induced ulcers % Curative Ratio” value was 64.82%. Moreover, the “PL - induced ulcers Ulcer Index” value in test [1] (mean ± SEM, six rats) is 5.1 ± 1.3^b. Moreover, the “CRS - induced ulcers % Curative Ratio” value in test [2] was 79.68%. Besides, the “CRS - induced ulcers Ulcer Index” value in test [2] (mean ± SEM, six rats) is on record as 5.2 ± 1.1^c.
